Reference: patent USRE37180E, “Photochemotherapeutical obstruction of newly-formed blood vessels” (Meiji Seika Kaisha, Ltd., priority 1995, dated 2001)
Structures can show the parent of a compound that is named as a salt.

Columns and labels:
[1] = acute toxicity tested by intravenous injection to CD-1 mice (male); settings: mouse, in vivo
photo-toxicity tests = type: in vivo
choroidal vessels = type: in vivo, normal pigmented rabbits
Source text: The predetermined regions (that is, said spots) of the blood vessels to be irradiated with the laser beam had been marked preliminarily by photo-coagulation by means of an argon laser beam. Immediately after the irradiation with the laser at 664 nm, as well as one week after the irradiation and one month after the irradiation with the laser at 664 nm, the fundus of the eyes under test was examined by fluorescein angiography.
The eye so treated was subsequently observed under light microscope at the end of 2 hours after the laser irradiation.
The laser-irradiated parts of the eye so treated were subsequently observed under light microscope at the end of 1 hour after the laser irradiation.

[2] = metabolic speed and level in the blood plasma; type: in vivo
serum albumin = assay: affinity to the serum albumin; type: binding
[3] = liposolubility / penetration into normal tissues; type: physicochemical
in vivo cells = assay: transfer into the in vivo cells; settings: not by diffusion
light absorption = type: physicochemical; settings: can absorb well
[4] = system: active lesions of the neovascular tissues; assay: accumulation in neovascular tissues; settings: in vivo
[5] = set-up: species or system normal pigmented rabbits; settings: rabbit, in vivo
[6] = system: choroidal neovascularization; assay: occlusion of choroidal neovascularization upon irradiation with laser beam; type: in vivo; settings: irradiation with a laser beam at 664 nm
[7] = cited from earlier work

With `C=Cc1c(C)c2cc3nc(c(CC(=O)N[C@@H](CC(=O)O)C(=O)O)c4[nH]c(cc5nc(cc1[nH]2)C(C)=C5CC)c(C)c4C(=O)O)[C@@H](CCC(=O)O)[C@@H]3C` [mono-L-aspartyl chlorin e6 tetra-sodium salt] the LD50 [1] was 164 mg/kg, the “adverse side reactions such as erythema and edema” value (photo-toxicity tests) was “does not involve adverse side reactions such as erythema and edema” and the “obstruction of choroidal blood vessels (choriocapillaris) maintained, light microscope” value (choroidal vessels; 25 mg/kg i.v., laser immediately after injection, 1 hour after irradiation) was “the choroidal blood vessels, more particularly the choriocapillaris continued to have been obstructed”. For the same molecule, the “endothelial cells of the chorio-capillaris / choriocapillaris, light microscope” value (choroidal vessels; 25 mg/kg i.v., laser immediately after injection, 2 hours after irradiation) was “endothelial cells of the chorio-capillaris had been swollen and necrotized and the choriocapillaris were obstructed”, the “extent of damages incurred in the choroidal vessels, laser one hour after versus immediately after injection” value (choroidal vessels; 25 mg/kg i.v., observed commonly for all the doses) was “the extent of damages incurred in the choroidal vessels is reduced at the laser irradiation as made one hour after the intravenous injection” and the “degree of obstruction of choroidal vessels compared with argon laser photo-coagulation” value (choroidal vessels; 25 mg/kg, laser immediately after administration, one week after irradiation, light microscope) was “the choroidal vessels were obstructed to a substantially same degree in the former case and the latter case”. The “obstruction in the choroidal vessels” value (choroidal vessels; 25, 50 and 100 mg/kg i.v., 664 nm laser immediately after injection, fluorescein angiography one week after irradiation) was “the obstruction took place in the choroidal vessels at all the doses”, the “degree of the obstruction in the choroidal vessels, dose dependence” value (choroidal vessels; 25, 50 and 100 mg/kg i.v., laser immediately after injection, one week after irradiation) was “the degree of the obstruction in the choroidal vessels increased with an increased doses” and the “level in the blood plasma” value ([2]; at the end of 10 hours from the administration) was 1/500. For the same molecule, the “metabolic speed relative to photofrin” value ([2]; faster than photofrin) was “at least 10 times”, the “affinity to the serum albumin” value (serum albumin) was “has a nature of exhibiting affinity to the serum albumin” and the liposolubility [3] was “low liposolubility”. For the same molecule, the “penetration and diffusion into healthy normal tissues having the barrier in vivo” value [3] was “hard to penetrate and diffuse into the healthy normal tissues having the barrier in vivo”, the “mode of transfer into the in vivo cells” value (in vivo cells) was “by the phagocytosis and/or pinocytosis” and the light absorption wavelength (light absorption) was 664 nm. The “accumulation in the active lesions of the neovascular tissues” value [4] was “can concentrate into and be accumulated well in the active lesions of the neovascular tissues”, the “level in the blood after the administration” value [5] was “can decrease quickly during an earlier period after the administration” and the “metabolism after administration into a human or animal body” value [5] was “can be metabolized well after its administration into a human or animal body”. The “necrosis of the vascular endothelial cells and occlusion of choroidal neovascularization” value [6] was “cause necrosis of the vascular endothelial cells and occlusion of choroidal neovascularization” and the “uptake into and excretion from the human and animal body” value [7] was “quickly uptaken into and excreted from the human and animal body”.
